This assay deals with BDF1 mice, P388 leukemia ip, median survival T/C. Briefly: NCI In Vivo Anticancer Drug Screen. Data for tumor model P388 Leukemia (intraperitoneal) in B6D2F1 (BDF1) mice. The following applies: endpoint: median survival time, higher = longer survival. The method in brief: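 Read-out is survival of treated animals expressed relative to the vehicle group, as a T/C ratio.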
The mark [1] stands for this setting: dose: 100.0 mg/kg/injection, schedule: Q01DX009 (ip), vehicle: Klucel (hydroxypropylcellulose) (HPC).
Where [2] appears, read: dose: 100.0 mg/kg/injection, schedule: Q04DX003 (ip), vehicle: Klucel (hydroxypropylcellulose) (HPC).
Where [3] appears, read: dose: 200.0 mg/kg/injection, schedule: Q04DX003 (ip), vehicle: Klucel (hydroxypropylcellulose) (HPC).
Setting [4] is: dose: 400.0 mg/kg/injection, schedule: Q01DX009 (ip), vehicle: Klucel (hydroxypropylcellulose) (HPC).
The mark [5] stands for this setting: dose: 400.0 mg/kg/injection, schedule: Q04DX003 (ip), vehicle: Klucel (hydroxypropylcellulose) (HPC).
The mark [6] stands for this setting: dose: 50.0 mg/kg/injection, schedule: Q01DX009 (ip), vehicle: saline.
Where [7] appears, read: dose: 100.0 mg/kg/injection, schedule: Q01DX009 (ip), vehicle: saline.
Setting [8] is: dose: 200.0 mg/kg/injection, schedule: Q01DX009 (ip), vehicle: saline.
Setting [9] is: dose: 400.0 mg/kg/injection, schedule: Q01DX009 (ip), vehicle: saline.
Setting [10] is: dose: 100.0 mg/kg/injection, schedule: Q04DX003 (ip), vehicle: saline with Tween-80.
[11] abbreviates: dose: 200.0 mg/kg/injection, schedule: Q04DX003 (ip), vehicle: saline with Tween-80.
Setting [12] is: dose: 400.0 mg/kg/injection, schedule: Q04DX003 (ip), vehicle: saline with Tween-80.
Setting [13] is: dose: 100.0 mg/kg/injection, schedule: Q01DX009 (ip), vehicle: saline with Tween-80.
The mark [14] stands for this setting: dose: 200.0 mg/kg/injection, schedule: Q01DX009 (ip), vehicle: saline with Tween-80.
The mark [15] stands for this setting: dose: 400.0 mg/kg/injection, schedule: Q01DX009 (ip), vehicle: saline with Tween-80.
Where [16] appears, read: dose: 25.0 mg/kg/injection, schedule: Q01DX009 (ip), vehicle: saline with Tween-80.
Setting [17] is: dose: 75.0 mg/kg/injection, schedule: Q01DX009 (ip), vehicle: saline with Tween-80.
The mark [18] stands for this setting: dose: 150.0 mg/kg/injection, schedule: Q01DX009 (ip), vehicle: saline with Tween-80.

Several values for one entry are separate records, joined by “and”; a condition that tells them apart may be missing. Equal values may be shown once. Inconclusive results and toxic doses are left out.

Turning to `COC12CC3(C)C(C4=CC(=O)OC4)CCC3(O)C3CCC4=CC(=O)CCC4(CO1)C32` (stereo unspecified), the T/C runs as follows: (dose: 56.0 mg/kg/injection, schedule: Q01DX010 (ip), vehicle: carboxymethylcellulose (CMC)) 95 % of control; (dose: 112.5 mg/kg/injection, schedule: Q01DX010 (ip), vehicle: carboxymethylcellulose (CMC)) 100 % of control; (dose: 225.0 mg/kg/injection, schedule: Q01DX010 (ip), vehicle: carboxymethylcellulose (CMC)) 90 % of control.
Turning to `Cc1ccc(NC(=O)c2ccccc2)cc1[As]=[As]c1cc(NC(=O)c2ccccc2)ccc1C` (stereo unspecified), the T/C was 150 % of control (dose: 1.25 mg/kg/injection, schedule: Q01DX009 (ip), vehicle: gum acacia); 122 % of control (dose: 1.25 mg/kg/injection, schedule: Q04DX003 (ip), vehicle: gum acacia); 113 % of control (dose: 2.2 mg/kg/injection, schedule: Q04DX003 (ip), vehicle: gum acacia); 165 % of control (dose: 2.5 mg/kg/injection, schedule: Q01DX009 (ip), vehicle: gum acacia); 116 % of control (dose: 3.3 mg/kg/injection, schedule: Q04DX003 (ip), vehicle: Klucel (hydroxypropylcellulose) (HPC)); 104 % of control (dose: 5.0 mg/kg/injection, schedule: Q04DX003 (ip), vehicle: Klucel (hydroxypropylcellulose) (HPC)). For the same molecule, the T/C (dose: 10.0 mg/kg/injection, schedule: Q04DX003 (ip), vehicle: gum acacia) is 154 % of control.
As for `C/C(N=Nc1ccc([N+](=O)[O-])cc1)=N\Nc1ccccc1`, the T/C under setting [1] is 94 % of control; the T/C under setting [2] is 91 % of control; the T/C (dose: 200.0 mg/kg/injection, schedule: Q01DX009 (ip), vehicle: Klucel (hydroxypropylcellulose) (HPC)) is 100 % of control; the T/C under setting [3] is 87 % of control; the T/C under setting [4] was 100 % of control; the T/C under setting [5] is 104 % of control.
`N#C[SH2+].N#C[SH2+].N#C[SH2+].N#C[SH2+].[Cu+2].c1ccc(C[P+](c2ccccc2)(c2ccccc2)c2ccccc2)cc1`: the T/C (dose: 100.0 mg/kg/injection, schedule: Q01DX001 (ip), vehicle: saline with Tween-80) was 100 % of control.
As for `Nc1ccc(Nc2ccccc2)c(S(=O)(=O)O)c1`, the T/C was 116 % of control under setting [6]; 100 % of control under setting [7]; 108 % of control under setting [8]; 104 % of control and 116 % of control under setting [9].
As for `COC(=O)/C(C#N)=C/c1c[nH]c2ccccc12`, the T/C by setting is: under setting [10], 100 % of control; under setting [11], 109 % of control; under setting [12], 100 % of control.
For the molecule `COc1cccc(CCNC(=O)CCN2C(=O)c3ccccc3C2=O)c1`, the T/C runs as follows: under setting [13], 95 % of control; under setting [14], 109 % of control; under setting [15], 100 % of control.
With `O.[Cu].[Cu]`, the T/C is, setting by setting: (dose: 6.25 mg/kg/injection, schedule: Q01DX009 (ip), vehicle: Klucel (hydroxypropylcellulose) (HPC)) 90 % of control; (dose: 6.25 mg/kg/injection, schedule: Q04DX003 (ip), vehicle: Klucel (hydroxypropylcellulose) (HPC)) 90 % of control; (dose: 12.5 mg/kg/injection, schedule: Q01DX009 (ip), vehicle: Klucel (hydroxypropylcellulose) (HPC)) 110 % of control; (dose: 12.5 mg/kg/injection, schedule: Q04DX003 (ip), vehicle: Klucel (hydroxypropylcellulose) (HPC)) 90 % of control; (dose: 25.0 mg/kg/injection, schedule: Q01DX009 (ip), vehicle: Klucel (hydroxypropylcellulose) (HPC)) 95 % of control; (dose: 25.0 mg/kg/injection, schedule: Q04DX003 (ip), vehicle: Klucel (hydroxypropylcellulose) (HPC)) 118 % of control.
Regarding `COc1ccc(/C=C/C2(O)N(C)C(=O)N(C)C(=O)N2C)cc1`, the T/C is 89 % of control under setting [6], 99 % of control under setting [7] and 118 % of control under setting [8].
With `CCSc1ncnc2nc[nH]c12`, the T/C was 104 % of control under setting [2] and 109 % of control under setting [3].
For the molecule `O=C1OC(=O)c2c(Br)c(Br)c(Br)c(Br)c21`, the T/C runs as follows: under setting [16], 109 % of control; (dose: 56.25 mg/kg/injection, schedule: Q01DX009 (ip), vehicle: saline with Tween-80) 90 % of control; under setting [17], 113 % of control; under setting [18], 109 % of control.
Take `CCC(CCC(C)C1CCC2C3CC=C4CC(OC5OC(CO)C(O)C(O)C5O)CCC4(C)C3CCC12C)C(C)C` (stereo unspecified): the T/C was 95 % of control under setting [2] and 95 % of control under setting [3].
Turning to `CC1=CCC2(C)C(=O)C1CC1=C2CC(C)(C)CC1=O` (stereo unspecified), the T/C by setting is: under setting [7], 100 % of control; under setting [9], 100 % of control.
Consider `CCCCCCCCCCCS(=O)(=O)C(CCOS(C)(=O)=O)COS(C)(=O)=O` (stereo unspecified), for which the T/C under setting [2] was 95 % of control, the T/C under setting [3] was 100 % of control and the T/C under setting [5] was 100 % of control.
In the case of `CC(=O)Oc1ccc(OC(C)=O)c2c1CC(C)=C(C)C2`, the T/C by setting is: under setting [6], 107 % of control; under setting [7], 113 % of control; (dose: 100.0 mg/kg/injection, schedule: Q04DX003 (ip), vehicle: saline) 109 % of control; under setting [8], 109 % of control; (dose: 200.0 mg/kg/injection, schedule: Q04DX003 (ip), vehicle: saline) 116 % of control; under setting [9], 118 % of control.
For `COC(=O)C(CSCSC)NC(=O)Nc1ccc(F)cc1` (stereo unspecified), the T/C is, setting by setting: under setting [13], 100 % of control; under setting [10], 100 % of control; under setting [14], 100 % of control; under setting [11], 95 % of control; under setting [15], 109 % of control; under setting [12], 90 % of control.
Turning to `C/C(=N\NC(=O)CC(=O)N/N=C(\C)c1ccncc1)c1ccncc1`, the T/C was 99 % of control under setting [17]; 90 % of control under setting [18]; 94 % of control (dose: 300.0 mg/kg/injection, schedule: Q01DX009 (ip), vehicle: saline with Tween-80).
Turning to `Cc1cc(N(CCCl)CCCl)ccc1C=Nc1ccccc1-c1ccccc1`, the T/C was 120 % of control under setting [1]; 112 % of control under setting [2]; 116 % of control under setting [3]; 120 % of control (dose: 266.0 mg/kg/injection, schedule: Q04DX003 (ip), vehicle: Klucel (hydroxypropylcellulose) (HPC)); 150 % of control and 158 % of control under setting [4]; 95 % of control under setting [5]. Further, the T/C is 200 % of control (dose: 600.0 mg/kg/injection, schedule: Q01DX009 (ip), vehicle: Klucel (hydroxypropylcellulose) (HPC)) and 154 % of control (dose: 600.0 mg/kg/injection, schedule: Q04DX003 (ip), vehicle: Klucel (hydroxypropylcellulose) (HPC)).
In the case of `COc1ccc(C(=O)N(N)C2CCCCC2)cc1`, the T/C runs as follows: under setting [6], 105 % of control; under setting [7], 105 % of control; under setting [8], 100 % of control.
Take `O=C(O)C(NC1CCCCC1)c1ccccc1` (stereo unspecified): the T/C was 120 % of control under setting [6], 105 % of control under setting [7] and 100 % of control under setting [8].
On to `COc1cc(C(=O)N(C)C)cc(OC)c1OC`, for which the T/C (dose: 25.0 mg/kg/injection, schedule: Q01DX009 (ip), vehicle: saline) is 112 % of control; the T/C under setting [6] is 98 % of control; the T/C under setting [7] is 98 % of control; the T/C under setting [8] was 101 % of control.
`CN(C)N=Nc1cc(Cl)cc(C(N)=O)c1Cl`: the T/C reads like this: (dose: 12.5 mg/kg/injection, schedule: Q01DX009 (ip), vehicle: saline with Tween-80) 108 % of control; under setting [16], 104 % of control; (dose: 50.0 mg/kg/injection, schedule: Q01DX009 (ip), vehicle: saline with Tween-80) 104 % of control; (dose: 88.0 mg/kg/injection, schedule: Q01DX009 (ip), vehicle: saline with Tween-80) 108 % of control; (dose: 177.0 mg/kg/injection, schedule: Q01DX009 (ip), vehicle: saline with Tween-80) 95 % of control; (dose: 266.0 mg/kg/injection, schedule: Q01DX009 (ip), vehicle: saline with Tween-80) 87 % of control.
With `CC(=O)Nc1ccc(S(=O)(=O)F)cc1`, the T/C by setting is: (dose: 50.0 mg/kg/injection, schedule: Q04DX003 (ip), vehicle: saline with Tween-80) 87 % of control; under setting [10], 104 % of control; under setting [11], 100 % of control.

For the origin of these results see PubChem BioAssay AID328 (DTP/NCI, 2004).
